Laboratory results taken from patent US9364455B2, “Combination of a prostaglandin receptor agonist and an MC1R receptor agonist for the treatment and/or prevention of pigmentation disorders” (GALDERMA RESEARCH & DEVELOPMENT, priority 2011, dated 2016).

Test system: tail skin of SKH2 mice
Assay: Propigmenting activity by topical application on the tail of SKH2 mice (clinical pigmentation score, luminance by colorimeter)
Format: in vivo
Conditions: 5 days per week for 57 days, 0.01% travoprost, MC1R agonist A at 7%, B at 8%, compared with carrier group (combinations also with 0.01% travoprost alone)
Excerpt: In mice, melanocytes are not present in the epidermis of the areas covered with hair and are mainly present in the hair follicles. The tail skin of SKH2 mice is pigmented, which is of particular interest for evaluating the effect of topical agents on skin pigmentation. The pigmentation modifications induced by these topical compounds can be quantified by various means, for instance the clinical score of the pigmentation and the measurement of the tail color using a colorimeter. The evaluation of the propigmenting activity of 0.01% travoprost alone or in combination with MC1R receptor agonists: compound A at 7% or compound B at 8%, is carried out by topical application on the tail of SKH2 mice for 57 days. The treatment is carried out 5 days per week for 57 days. 20 μl of the test product diluted in the carrier 145 are applied to the tail. In the case of the combinations, 20 μl of the MC1R agonist solution are applied after the treatment with 20 μl of the 0.01% travoprost solution. The clinical score of the animals is recorded once a week before irradiation; the pigmentation is evaluated by virtue of a score on a scale of 0 to 4. […]

**Q.** For `CC(C)OC(=O)CCC/C=C\C[C@@H]1[C@@H](/C=C/[C@@H](O)COc2cccc(C(F)(F)F)c2)[C@H](O)C[C@@H]1O` [travoprost], which “clinical score for pigmentation (natural pigmentation of the tail skin)” value is on record?
**A.** moderately increases the natural pigmentation of the tail skin as early as day 36
